The results in this text go back to PubChem BioAssay AID226 (DTP/NCI, 2004).

Values joined by “and” are separate entries in the source; they are usually repeats but may differ in a detail not shown here. Equal values may be shown once. Inconclusive results and toxic doses are left out.

This test concerns B6C3F1 mice, intracerebral ependymoblastoma, median survival T/C. The test can be described thus: NCI In Vivo Anticancer Drug Screen. Data for tumor model Ependymoblastoma (intracerebral) in B6C3F1 mice. Particulars: endpoint: median survival time, higher = longer survival. The method, then:
The antitumor activity of compounds was measured in mice bearing transplantable tumors. Survival or tumor size were measured and the results are expressed as the measurement made in the treated group (T) divided by the measurement made in the vehicle treated control group (C). The tumor model used in this assay is Ependymoblastoma (intracerebral) in B6C3F1 mice

[1] abbreviates: dose: 8.0 mg/kg/injection, schedule: Q01DX005 (ip), vehicle: saline.
Where [2] appears, read: dose: 32.0 mg/kg/injection, schedule: Q01DX005 (ip), vehicle: saline.
The mark [3] stands for this setting: dose: 128.0 mg/kg/injection, schedule: Q01DX005 (ip), vehicle: saline.
Setting [4] is: dose: 25.0 mg/kg/injection, schedule: Q01DX005 (ip), vehicle: saline.
The mark [5] stands for this setting: dose: 50.0 mg/kg/injection, schedule: Q01DX005 (ip), vehicle: saline.

On to `O=C(NP(=O)(N1CC1)N1CC1)c1cc(I)ccc1I`, for which the T/C is, setting by setting: under setting [1], 104 % of control and 109 % of control; (dose: 16.0 mg/kg/injection, schedule: Q01DX005 (ip), vehicle: saline) 106 % of control and 124 % of control; (dose: 16.0 mg/kg/injection, schedule: Q#A X004 (ip), vehicle: suspension in saline) 101 % of control; (dose: 16.0 mg/kg/injection, schedule: Q#A X006 (ip), vehicle: suspension in saline) 113 % of control; (dose: 32.0 mg/kg/injection, schedule: Q01DX001 (ip), vehicle: suspension in saline) 101 % of control; under setting [2], 112 % of control. Besides, the T/C is 117 % of control (dose: 32.0 mg/kg/injection, schedule: Q#A X004 (ip), vehicle: suspension in saline); 117 % of control (dose: 32.0 mg/kg/injection, schedule: Q#A X006 (ip), vehicle: suspension in saline); 117 % of control (dose: 64.0 mg/kg/injection, schedule: Q01DX001 (ip), vehicle: suspension in saline); 103 % of control (dose: 64.0 mg/kg/injection, schedule: Q01DX001 (oral), vehicle: suspension in saline); 117 % of control (dose: 64.0 mg/kg/injection, schedule: Q#A X004 (ip), vehicle: suspension in saline); 122 % of control (dose: 64.0 mg/kg/injection, schedule: Q#A X006 (ip), vehicle: suspension in saline). The T/C is 103 % of control (dose: 128.0 mg/kg/injection, schedule: Q01DX001 (ip), vehicle: suspension in saline); 106 % of control (dose: 128.0 mg/kg/injection, schedule: Q01DX001 (oral), vehicle: suspension in saline); 116 % of control under setting [3]; 111 % of control (dose: 128.0 mg/kg/injection, schedule: Q#A X004 (ip), vehicle: suspension in saline); 113 % of control (dose: 256.0 mg/kg/injection, schedule: Q01DX001 (oral), vehicle: suspension in saline); 112 % of control (dose: 512.0 mg/kg/injection, schedule: Q01DX001 (ip), vehicle: suspension in saline).
As to `CCCN(C)C(=O)N(CCCl)N=O`, the T/C (dose: 19.4 mg/kg/injection, schedule: Q01DX001 (ip), vehicle: DMSO) is 116 % of control; the T/C (dose: 31.3 mg/kg/injection, schedule: Q01DX001 (ip), vehicle: saline + alcohol) was 320 % of control; the T/C (dose: 32.4 mg/kg/injection, schedule: Q01DX001 (ip), vehicle: DMSO) is 169 % of control; the T/C (dose: 54.0 mg/kg/injection, schedule: Q01DX001 (ip), vehicle: DMSO) was 239 % of control; the T/C (dose: 62.5 mg/kg/injection, schedule: Q01DX001 (ip), vehicle: saline + alcohol) was 324 % of control; the T/C (dose: 90.0 mg/kg/injection, schedule: Q01DX001 (ip), vehicle: DMSO) is 368 % of control. For the same compound, the T/C reads like this: (dose: 125.0 mg/kg/injection, schedule: Q01DX001 (ip), vehicle: saline + alcohol) 110 % of control; (dose: 150.0 mg/kg/injection, schedule: Q01DX001 (ip), vehicle: DMSO) 366 % of control; (dose: 250.0 mg/kg/injection, schedule: Q01DX001 (ip), vehicle: DMSO) 365 % of control.
`CCN(CC)c1ccc2cc3ccc(=[N+](CC)CC)cc-3oc2c1`: the T/C is, setting by setting: (dose: 2.0 mg/kg/injection, schedule: Q01DX005 (ip), vehicle: saline) 110 % of control; (dose: 4.0 mg/kg/injection, schedule: Q01DX005 (ip), vehicle: saline) 90 % of control; under setting [1], 93 % of control.
In the case of `COCC(O)Cn1ccnc1[N+](=O)[O-]` (stereo unspecified), the T/C is, setting by setting: (dose: 32.0 mg/kg/injection, schedule: Q01DX005 (ip), vehicle: Klucel (hydroxypropylcellulose) (HPC)) 97 % of control; (dose: 64.0 mg/kg/injection, schedule: Q01DX005 (ip), vehicle: Klucel (hydroxypropylcellulose) (HPC)) 96 % of control; (dose: 100.0 mg/kg/injection, schedule: Q01DX005 (ip), vehicle: saline with Tween-80) 97 % of control and 111 % of control; (dose: 100.0 mg/kg/injection, schedule: Q01DX009 (ip), vehicle: saline with Tween-80) 91 % of control and 112 % of control; (dose: 100.0 mg/kg/injection, schedule: Q12HX010 (ip), vehicle: saline with Tween-80) 109 % of control; (dose: 100.0 mg/kg/injection, schedule: Q#A X010 (ip), vehicle: saline with Tween-80) 167 % of control. The T/C runs as follows: (dose: 100.0 mg/kg/injection, schedule: Q#ADX018 (ip), vehicle: saline with Tween-80) 86 % of control; (dose: 128.0 mg/kg/injection, schedule: Q01DX005 (ip), vehicle: Klucel (hydroxypropylcellulose) (HPC)) 93 % of control; (dose: 200.0 mg/kg/injection, schedule: Q01DX005 (ip), vehicle: saline with Tween-80) 106 % of control and 88 % of control; (dose: 200.0 mg/kg/injection, schedule: Q01DX009 (ip), vehicle: saline with Tween-80) 94 % of control and 107 % of control; (dose: 200.0 mg/kg/injection, schedule: Q12HX010 (ip), vehicle: saline with Tween-80) 118 % of control; (dose: 200.0 mg/kg/injection, schedule: Q#A X010 (ip), vehicle: saline with Tween-80) 172 % of control. For the same compound, the T/C runs as follows: (dose: 200.0 mg/kg/injection, schedule: Q#ADX018 (ip), vehicle: saline with Tween-80) 94 % of control; (dose: 256.0 mg/kg/injection, schedule: Q01DX005 (ip), vehicle: Klucel (hydroxypropylcellulose) (HPC)) 92 % of control; (dose: 400.0 mg/kg/injection, schedule: Q01DX005 (ip), vehicle: saline with Tween-80) 92 % of control and 105 % of control; (dose: 400.0 mg/kg/injection, schedule: Q01DX009 (ip), vehicle: saline with Tween-80) 96 % of control and 98 % of control; (dose: 400.0 mg/kg/injection, schedule: Q12HX010 (ip), vehicle: saline with Tween-80) 117 % of control; (dose: 400.0 mg/kg/injection, schedule: Q#A X010 (ip), vehicle: saline with Tween-80) 167 % of control. Besides, the T/C (dose: 400.0 mg/kg/injection, schedule: Q#ADX018 (ip), vehicle: saline with Tween-80) is 100 % of control; the T/C (dose: 512.0 mg/kg/injection, schedule: Q01DX005 (ip), vehicle: Klucel (hydroxypropylcellulose) (HPC)) is 96 % of control; the T/C (dose: 800.0 mg/kg/injection, schedule: Q01DX005 (ip), vehicle: saline with Tween-80) was 101 % of control; the T/C (dose: 800.0 mg/kg/injection, schedule: Q01DX009 (ip), vehicle: saline with Tween-80) was 103 % of control and 104 % of control; the T/C (dose: 800.0 mg/kg/injection, schedule: Q12HX010 (ip), vehicle: saline with Tween-80) was 99 % of control; the T/C (dose: 800.0 mg/kg/injection, schedule: Q#A X010 (ip), vehicle: saline with Tween-80) was 165 % of control. Also, under “dose: 800.0 mg/kg/injection, schedule: Q#ADX018 (ip), vehicle: saline with Tween-80”, the T/C is 94 % of control.
On to `NC(CO)(CO)CO`, for which the T/C is 98 % of control (dose: 200.0 mg/kg/injection, schedule: Q01DX005 (ip), vehicle: saline); 110 % of control (dose: 400.0 mg/kg/injection, schedule: Q01DX005 (ip), vehicle: saline); 105 % of control (dose: 800.0 mg/kg/injection, schedule: Q01DX005 (ip), vehicle: saline); 110 % of control (dose: 1600.0 mg/kg/injection, schedule: Q01DX005 (ip), vehicle: saline).
Consider `CN1CCC23c4c5ccc(O)c4OC2C(O)C=CC3C1C5` (stereo unspecified), for which the T/C by setting is: under setting [2], 112 % of control; (dose: 64.0 mg/kg/injection, schedule: Q01DX005 (ip), vehicle: saline) 101 % of control; under setting [3], 99 % of control.
Regarding `COc1ccc2c(c1OC(C)=O)-c1cc(OC(C)=O)cc3c1C(C2)N(C(=O)CBr)CC3` (stereo unspecified), the T/C was 96 % of control under setting [4] and 91 % of control under setting [5].
Regarding `c1ccc([C@H]2CN3CCSC3=N2)cc1`, the T/C by setting is: (dose: 10.0 mg/kg/injection, schedule: Q01DX005 (ip), vehicle: saline) 114 % of control; (dose: 20.0 mg/kg/injection, schedule: Q01DX005 (ip), vehicle: saline) 107 % of control; (dose: 40.0 mg/kg/injection, schedule: Q01DX005 (ip), vehicle: saline) 110 % of control.
In the case of `CN(C)C1=CC(=O)C(N(C)C)=CC1=O`, the T/C (dose: 12.5 mg/kg/injection, schedule: Q01DX005 (ip), vehicle: saline) is 105 % of control; the T/C under setting [4] was 101 % of control; the T/C under setting [5] was 100 % of control; the T/C (dose: 100.0 mg/kg/injection, schedule: Q01DX005 (ip), vehicle: saline) was 97 % of control.
